What was measured:
[1] = biological target: 5-hydroxytryptamine receptor 2B (Homo sapiens, UniProt P41595)
[2] = biological target: T1, Glucocorticoid receptor (Homo sapiens, UniProt P04150); assay type: functional
T1 sequence (P04150 whole entry): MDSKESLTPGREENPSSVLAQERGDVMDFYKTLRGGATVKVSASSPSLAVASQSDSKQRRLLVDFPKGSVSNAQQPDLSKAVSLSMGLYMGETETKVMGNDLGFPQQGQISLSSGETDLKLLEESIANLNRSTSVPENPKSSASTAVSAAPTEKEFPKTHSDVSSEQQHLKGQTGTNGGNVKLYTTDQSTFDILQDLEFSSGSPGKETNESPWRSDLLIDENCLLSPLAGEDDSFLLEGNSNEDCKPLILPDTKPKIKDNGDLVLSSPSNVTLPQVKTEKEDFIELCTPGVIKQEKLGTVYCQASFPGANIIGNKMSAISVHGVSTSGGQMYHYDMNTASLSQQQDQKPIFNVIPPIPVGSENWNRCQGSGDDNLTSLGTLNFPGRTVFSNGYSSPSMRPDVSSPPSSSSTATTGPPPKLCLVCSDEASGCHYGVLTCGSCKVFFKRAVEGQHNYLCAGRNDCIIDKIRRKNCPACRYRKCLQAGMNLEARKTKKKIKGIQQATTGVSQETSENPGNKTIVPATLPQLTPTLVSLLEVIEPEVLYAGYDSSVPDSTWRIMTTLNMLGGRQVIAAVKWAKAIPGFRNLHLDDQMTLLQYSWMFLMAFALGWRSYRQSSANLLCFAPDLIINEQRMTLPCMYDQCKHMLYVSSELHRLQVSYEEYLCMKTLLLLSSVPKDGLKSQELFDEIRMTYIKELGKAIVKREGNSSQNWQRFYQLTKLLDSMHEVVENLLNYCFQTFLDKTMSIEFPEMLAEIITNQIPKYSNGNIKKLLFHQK

[3] = biological target: Mu-type opioid receptor (Homo sapiens, UniProt P35372); test: biochemical; assay type: functional
Sequence of Mu-type opioid receptor (P35372 whole entry): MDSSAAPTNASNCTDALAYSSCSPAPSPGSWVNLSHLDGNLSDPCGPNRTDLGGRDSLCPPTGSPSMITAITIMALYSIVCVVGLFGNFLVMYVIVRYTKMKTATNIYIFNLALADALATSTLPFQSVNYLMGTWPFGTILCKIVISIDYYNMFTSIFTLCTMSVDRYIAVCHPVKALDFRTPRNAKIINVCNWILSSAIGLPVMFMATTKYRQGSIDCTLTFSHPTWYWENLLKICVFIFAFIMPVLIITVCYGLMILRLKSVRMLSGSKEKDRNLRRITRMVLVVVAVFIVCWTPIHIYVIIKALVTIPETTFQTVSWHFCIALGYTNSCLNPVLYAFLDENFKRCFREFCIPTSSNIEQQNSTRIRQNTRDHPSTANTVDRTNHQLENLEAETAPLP

[4] = biological target: T2, Muscarinic acetylcholine receptor M2 (Homo sapiens, UniProt P08172)
T2 sequence (P08172 whole entry): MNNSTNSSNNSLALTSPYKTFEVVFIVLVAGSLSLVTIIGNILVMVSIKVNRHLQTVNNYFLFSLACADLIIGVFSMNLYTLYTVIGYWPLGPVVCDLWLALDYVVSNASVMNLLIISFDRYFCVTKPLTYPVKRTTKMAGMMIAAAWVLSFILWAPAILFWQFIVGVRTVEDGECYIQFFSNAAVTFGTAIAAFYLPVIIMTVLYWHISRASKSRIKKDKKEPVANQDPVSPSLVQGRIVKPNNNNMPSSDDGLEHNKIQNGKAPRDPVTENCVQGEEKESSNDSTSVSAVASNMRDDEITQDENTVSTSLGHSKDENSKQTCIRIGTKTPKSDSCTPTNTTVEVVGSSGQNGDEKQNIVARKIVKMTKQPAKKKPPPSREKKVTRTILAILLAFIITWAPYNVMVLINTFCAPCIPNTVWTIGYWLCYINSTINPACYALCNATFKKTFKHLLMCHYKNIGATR

[5] = biological target: T3, Adenosine receptor A1 (Homo sapiens, UniProt P30542)
T3 sequence (P30542 whole entry): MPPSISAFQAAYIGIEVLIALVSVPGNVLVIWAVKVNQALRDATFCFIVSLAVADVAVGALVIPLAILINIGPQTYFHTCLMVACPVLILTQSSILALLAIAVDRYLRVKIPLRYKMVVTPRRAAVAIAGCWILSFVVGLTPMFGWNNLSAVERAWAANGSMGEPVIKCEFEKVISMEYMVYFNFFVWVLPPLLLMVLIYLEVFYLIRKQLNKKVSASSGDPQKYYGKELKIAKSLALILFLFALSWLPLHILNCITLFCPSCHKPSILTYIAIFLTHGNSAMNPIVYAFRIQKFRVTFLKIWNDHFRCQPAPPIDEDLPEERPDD

[6] = biological target: D(1A) dopamine receptor (Homo sapiens, UniProt P21728)
Sequence of D(1A) dopamine receptor (P21728 whole entry): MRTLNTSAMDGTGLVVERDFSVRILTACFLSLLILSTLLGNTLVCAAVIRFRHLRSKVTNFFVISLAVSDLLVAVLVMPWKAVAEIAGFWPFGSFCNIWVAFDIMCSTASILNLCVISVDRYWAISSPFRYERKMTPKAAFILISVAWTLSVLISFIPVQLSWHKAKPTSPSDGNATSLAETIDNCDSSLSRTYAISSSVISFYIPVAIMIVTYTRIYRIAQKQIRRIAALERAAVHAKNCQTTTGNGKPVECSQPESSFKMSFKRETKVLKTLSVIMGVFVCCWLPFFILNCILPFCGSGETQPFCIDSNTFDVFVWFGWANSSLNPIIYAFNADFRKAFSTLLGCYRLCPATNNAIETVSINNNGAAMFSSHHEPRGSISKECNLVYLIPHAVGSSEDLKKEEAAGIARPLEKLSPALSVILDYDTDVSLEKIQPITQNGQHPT

[7] = biological target: T4, Corticotropin-releasing factor receptor 1 (Homo sapiens, UniProt P34998)
T4 sequence (P34998 whole entry): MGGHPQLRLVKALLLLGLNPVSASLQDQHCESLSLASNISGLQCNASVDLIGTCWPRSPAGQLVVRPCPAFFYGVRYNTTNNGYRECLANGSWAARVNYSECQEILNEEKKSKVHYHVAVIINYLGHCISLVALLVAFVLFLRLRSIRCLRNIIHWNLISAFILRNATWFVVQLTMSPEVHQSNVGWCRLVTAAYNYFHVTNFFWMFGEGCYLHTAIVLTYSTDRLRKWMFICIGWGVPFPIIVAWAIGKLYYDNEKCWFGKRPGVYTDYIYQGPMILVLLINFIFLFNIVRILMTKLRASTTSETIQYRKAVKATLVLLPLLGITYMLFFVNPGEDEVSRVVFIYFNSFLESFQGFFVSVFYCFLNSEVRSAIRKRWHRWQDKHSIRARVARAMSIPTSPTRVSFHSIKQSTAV

[8] = biological target: T5, Corticotropin-releasing factor receptor 2 (Homo sapiens, UniProt Q13324)
T5 sequence (Q13324 whole entry): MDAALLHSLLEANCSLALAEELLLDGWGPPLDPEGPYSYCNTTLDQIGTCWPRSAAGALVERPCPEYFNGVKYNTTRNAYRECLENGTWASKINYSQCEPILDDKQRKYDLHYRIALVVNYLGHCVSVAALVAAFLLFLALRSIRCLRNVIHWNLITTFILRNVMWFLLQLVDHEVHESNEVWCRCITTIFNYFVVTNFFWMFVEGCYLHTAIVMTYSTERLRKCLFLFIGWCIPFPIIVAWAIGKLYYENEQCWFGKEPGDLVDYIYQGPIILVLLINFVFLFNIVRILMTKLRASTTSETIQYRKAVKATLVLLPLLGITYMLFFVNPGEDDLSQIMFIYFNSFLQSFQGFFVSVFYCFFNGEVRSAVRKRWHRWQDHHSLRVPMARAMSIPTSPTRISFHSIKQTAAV

[9] = biological target: Neurotensin receptor type 1 (Homo sapiens, UniProt P30989)
Sequence of Neurotensin receptor type 1 (P30989 whole entry): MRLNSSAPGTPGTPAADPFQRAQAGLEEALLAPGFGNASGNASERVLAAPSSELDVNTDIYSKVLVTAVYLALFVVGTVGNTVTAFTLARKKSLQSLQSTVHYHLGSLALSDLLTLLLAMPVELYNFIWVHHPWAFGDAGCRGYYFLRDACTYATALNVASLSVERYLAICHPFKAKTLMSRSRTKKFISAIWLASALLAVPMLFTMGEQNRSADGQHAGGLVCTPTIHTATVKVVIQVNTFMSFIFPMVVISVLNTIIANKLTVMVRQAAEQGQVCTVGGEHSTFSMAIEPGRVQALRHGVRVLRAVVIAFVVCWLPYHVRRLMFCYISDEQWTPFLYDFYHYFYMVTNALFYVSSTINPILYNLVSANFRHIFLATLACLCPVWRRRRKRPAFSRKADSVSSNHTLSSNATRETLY

[10] = biological target: Sodium channel protein type 5 subunit alpha (Homo sapiens, UniProt Q14524); assay type: functional, cell-based
Sequence of Sodium channel protein type 5 subunit alpha (Q14524 whole entry): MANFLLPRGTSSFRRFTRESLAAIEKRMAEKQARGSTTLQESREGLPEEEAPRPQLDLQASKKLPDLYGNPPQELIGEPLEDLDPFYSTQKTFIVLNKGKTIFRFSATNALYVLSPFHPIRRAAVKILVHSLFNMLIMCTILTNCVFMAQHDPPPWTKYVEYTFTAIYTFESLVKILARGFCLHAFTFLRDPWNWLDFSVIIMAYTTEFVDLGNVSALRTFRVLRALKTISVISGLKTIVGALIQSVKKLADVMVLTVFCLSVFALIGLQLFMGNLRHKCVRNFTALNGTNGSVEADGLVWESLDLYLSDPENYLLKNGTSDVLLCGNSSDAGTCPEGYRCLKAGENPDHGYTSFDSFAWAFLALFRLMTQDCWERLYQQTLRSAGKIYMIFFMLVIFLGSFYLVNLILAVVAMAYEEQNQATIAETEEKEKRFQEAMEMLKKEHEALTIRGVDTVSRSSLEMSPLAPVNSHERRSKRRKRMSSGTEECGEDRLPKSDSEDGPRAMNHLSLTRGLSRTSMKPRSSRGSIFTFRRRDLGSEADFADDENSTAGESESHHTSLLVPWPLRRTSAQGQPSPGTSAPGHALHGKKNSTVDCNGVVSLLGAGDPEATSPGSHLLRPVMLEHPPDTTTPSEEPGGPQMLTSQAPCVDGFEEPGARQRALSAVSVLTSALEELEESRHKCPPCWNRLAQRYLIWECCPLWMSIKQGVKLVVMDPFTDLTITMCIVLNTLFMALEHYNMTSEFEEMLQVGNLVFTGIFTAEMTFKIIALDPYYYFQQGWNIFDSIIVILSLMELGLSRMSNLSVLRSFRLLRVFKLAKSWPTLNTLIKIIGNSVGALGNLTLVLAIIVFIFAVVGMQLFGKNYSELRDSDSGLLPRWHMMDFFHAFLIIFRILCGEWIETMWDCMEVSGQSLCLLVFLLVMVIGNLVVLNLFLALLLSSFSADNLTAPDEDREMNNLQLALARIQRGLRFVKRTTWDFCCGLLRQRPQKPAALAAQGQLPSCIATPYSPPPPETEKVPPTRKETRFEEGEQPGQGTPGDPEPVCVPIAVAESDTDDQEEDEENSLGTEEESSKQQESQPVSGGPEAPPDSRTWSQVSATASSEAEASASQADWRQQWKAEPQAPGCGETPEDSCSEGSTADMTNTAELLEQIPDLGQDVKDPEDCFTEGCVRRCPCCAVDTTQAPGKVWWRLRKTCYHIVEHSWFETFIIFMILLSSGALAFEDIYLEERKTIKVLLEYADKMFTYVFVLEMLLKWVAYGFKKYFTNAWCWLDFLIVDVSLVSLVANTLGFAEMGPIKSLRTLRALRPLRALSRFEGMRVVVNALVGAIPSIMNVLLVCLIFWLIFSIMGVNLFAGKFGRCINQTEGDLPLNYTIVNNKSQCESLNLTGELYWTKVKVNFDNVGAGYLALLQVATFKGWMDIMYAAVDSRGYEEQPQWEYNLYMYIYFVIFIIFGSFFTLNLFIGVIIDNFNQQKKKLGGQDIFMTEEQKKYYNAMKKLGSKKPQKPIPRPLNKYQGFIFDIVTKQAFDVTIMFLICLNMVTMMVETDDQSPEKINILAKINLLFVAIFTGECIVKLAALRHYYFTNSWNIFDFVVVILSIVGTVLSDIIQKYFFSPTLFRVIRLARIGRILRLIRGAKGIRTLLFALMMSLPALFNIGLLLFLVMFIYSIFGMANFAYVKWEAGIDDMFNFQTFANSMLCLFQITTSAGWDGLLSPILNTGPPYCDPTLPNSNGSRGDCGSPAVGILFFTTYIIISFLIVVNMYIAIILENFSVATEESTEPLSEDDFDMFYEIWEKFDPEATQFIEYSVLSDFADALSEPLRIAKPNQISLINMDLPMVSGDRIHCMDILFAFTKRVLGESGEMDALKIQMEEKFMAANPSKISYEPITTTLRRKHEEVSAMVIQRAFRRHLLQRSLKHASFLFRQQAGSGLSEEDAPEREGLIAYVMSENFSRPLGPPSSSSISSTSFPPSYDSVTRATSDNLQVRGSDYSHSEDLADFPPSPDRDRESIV
Also: assay procedure not described here.

Sequence of 5-hydroxytryptamine receptor 2B (P41595 whole entry): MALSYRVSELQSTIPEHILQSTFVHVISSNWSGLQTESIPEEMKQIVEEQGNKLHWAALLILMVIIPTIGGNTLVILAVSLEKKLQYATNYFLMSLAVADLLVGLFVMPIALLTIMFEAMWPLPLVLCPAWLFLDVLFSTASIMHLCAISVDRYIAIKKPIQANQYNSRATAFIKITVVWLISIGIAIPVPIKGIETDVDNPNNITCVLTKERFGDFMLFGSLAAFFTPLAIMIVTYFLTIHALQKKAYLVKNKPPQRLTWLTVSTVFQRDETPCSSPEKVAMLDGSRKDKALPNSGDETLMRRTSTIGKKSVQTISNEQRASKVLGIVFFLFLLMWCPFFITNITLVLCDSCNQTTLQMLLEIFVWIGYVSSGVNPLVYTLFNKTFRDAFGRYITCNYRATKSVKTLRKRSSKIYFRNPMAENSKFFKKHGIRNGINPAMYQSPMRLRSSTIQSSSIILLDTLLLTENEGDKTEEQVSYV

| Compound | AC50 [2] | AC50 [3] | AC50 [5] | AC50 [6] | further results |
| --- | --- | --- | --- | --- | --- |
| CC(=O)SCC(Cc1ccccc1)C(=O)NCC(=O)OCc1ccccc1 (configuration not stated) [RACECADOTRIL] | 6.3 µM | > 30 µM |  |  | AC50 [1]: > 10 µM; AC50 [4]: > 10 µM |
| C#CCN(C)Cc1ccccc1 [PARGYLINE] |  | > 30 µM | > 30 µM | > 30 µM |  |
| CC#CC(=O)N1CCC[C@H]1c1nc(-c2ccc(C(=O)Nc3ccccn3)cc2)c2c(N)nccn12 [ACALABRUTINIB] |  |  | > 30 µM | > 30 µM |  |
| O=C(Cc1cccs1)N[C@@H]1C(=O)N2C(C(=O)[O-])=C(C[n+]3ccccc3)CS[C@H]12 [CEPHALORIDINE] |  | > 30 µM | > 30 µM | > 30 µM |  |
| CCCCCCO[C@@H](C)c1cccc(-c2csc(NC(=O)c3cc(Cl)c(/C=C(\C)C(=O)O)c(Cl)c3)n2)c1OC [LUSUTROMBOPAG] |  |  | > 30 µM | 5.53 µM |  |
| NCC1(CC(=O)O)CCCCC1 [GABAPENTIN] | > 30 µM |  |  |  | AC50 [7]: > 30 µM; AC50 [8]: > 30 µM; AC50 [1]: > 10 µM; AC50 [9]: > 30 µM; AC50 [10]: > 30 µM; AC50 [4]: > 10 µM |
| C[C@H](Nc1ncnc2[nH]cnc12)c1cc2cccc(Cl)c2c(=O)n1-c1ccccc1 [DUVELISIB] | > 30 µM |  | > 30 µM | > 30 µM | AC50 [10]: > 50 µM |
| O=C(O)[C@@H](S)[C@@H](S)C(=O)O |  |  | > 30 µM | > 30 µM |  |
